Assay results taken from ChEMBL document CHEMBL1201862, “PubChem BioAssay data set” (2004).
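Tested at 5 concentrations; 48 h exposure; 96-well plates; endpoints linearly interpolated, else capped at highest concentration. GI50 = concentration required for 50% inhibition of growth.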 Active and inactive are the calls of the source. Rule as the data show it: active = GI50 up to about 1.1 µM and inactive = higher.

Columns and labels:
Test in all cases: DTP human tumour cell line panel, 48 h
HOP-92 = system: HOP-92
MOLT-4 = system: MOLT-4
Malme-3M = system: Malme-3M
HCT-15 = system: HCT-15
OVCAR-8 = system: OVCAR-8
RXF 393 = system: RXF 393
SK-MEL-28 = system: SK-MEL-28
MDA-N = system: MDA-N
IGROV-1 = system: IGROV-1
NCI-H226 = system: NCI-H226
SK-MEL-5 = system: SK-MEL-5
KM12 = system: KM12
MDA-MB-435 = system: MDA-MB-435
MCF7 = system: MCF7
A498 = system: A498
SNB-75 = system: SNB-75
Hs-578T = system: Hs-578T
A549 = system: A549
NCI-H23 = system: NCI-H23
HCC 2998 = system: HCC 2998

## COC(=O)CCCC(=O)O
HOP-92
  GI50: > 100 µM (inactive)
MOLT-4
  GI50: > 100 µM (inactive)
Malme-3M
  GI50: > 100 µM (inactive)
HCT-15
  GI50: > 100 µM
OVCAR-8
  GI50: > 100 µM (inactive)
RXF 393
  GI50: > 100 µM (inactive)
SK-MEL-28
  GI50: > 100 µM (inactive)
MDA-N
  GI50: > 100 µM (inactive)
IGROV-1
  GI50: > 100 µM (inactive)
NCI-H226
  GI50: > 100 µM (inactive)
SK-MEL-5
  GI50: > 100 µM (inactive)
KM12
  GI50: > 100 µM (inactive)
MDA-MB-435
  GI50: > 100 µM (inactive)
MCF7
  GI50: > 100 µM (inactive)
A498
  GI50: > 100 µM (inactive)
SNB-75
  GI50: > 100 µM (inactive)
Hs-578T
  GI50: > 100 µM (inactive)
A549
  GI50: > 100 µM (inactive)
NCI-H23
  GI50: > 100 µM (inactive)

## CC(C)=NNc1snnc1C(N)=O
HCC 2998
  GI50: > 100 µM (inactive)
MOLT-4
  GI50: > 100 µM (inactive)
Malme-3M
  GI50: > 100 µM (inactive)
OVCAR-8
  GI50: > 100 µM (inactive)
RXF 393
  GI50: > 100 µM (inactive)
SK-MEL-28
  GI50: > 100 µM (inactive)
MDA-N
  GI50: > 100 µM (inactive)
IGROV-1
  GI50: > 100 µM (inactive)
NCI-H226
  GI50: > 100 µM (inactive)
SK-MEL-5
  GI50: > 100 µM (inactive)
KM12
  GI50: > 100 µM (inactive)
MDA-MB-435
  GI50: > 100 µM (inactive)
MCF7
  GI50: > 100 µM (inactive)
A498
  GI50: > 100 µM (inactive)
SNB-75
  GI50: > 100 µM (inactive)
Hs-578T
  GI50: > 100 µM (inactive)
A549
  GI50: > 100 µM (inactive)
NCI-H23
  GI50: > 100 µM (inactive)

## CC(C)c1c(P(=O)(c2ccccc2)c2ccccc2)n(C)c2ccccc12
HOP-92
  GI50: > 100 µM (inactive)
HCC 2998
  GI50: > 100 µM (inactive)
MOLT-4
  GI50: 34.8 µM (inactive)
Malme-3M
  GI50: > 100 µM (inactive)
HCT-15
  GI50: 72.3 µM
OVCAR-8
  GI50: 89.9 µM (inactive)
SK-MEL-28
  GI50: 76.7 µM (inactive)
MDA-N
  GI50: 56.1 µM (inactive)
NCI-H226
  GI50: 52.8 µM (inactive)
KM12
  GI50: 51.8 µM (inactive)
MDA-MB-435
  GI50: 45.5 µM (inactive)
MCF7
  GI50: > 100 µM (inactive)
A498
  GI50: > 100 µM (inactive)
SNB-75
  GI50: 95.3 µM (inactive)
Hs-578T
  GI50: > 100 µM (inactive)
A549
  GI50: 51.6 µM (inactive)
NCI-H23
  GI50: 40.5 µM (inactive)

## CCc1n[nH]c(=O)n1/N=C/c1ccc(/C=N/n2c(CC)n[nH]c2=O)cc1
MOLT-4
  GI50: > 100 µM (inactive)
Malme-3M
  GI50: > 100 µM (inactive)
HCT-15
  GI50: > 100 µM
OVCAR-8
  GI50: > 100 µM (inactive)
RXF 393
  GI50: > 100 µM (inactive)
SK-MEL-28
  GI50: > 100 µM (inactive)
MDA-N
  GI50: > 100 µM (inactive)
IGROV-1
  GI50: > 100 µM (inactive)
NCI-H226
  GI50: > 100 µM (inactive)
SK-MEL-5
  GI50: > 100 µM (inactive)
KM12
  GI50: > 100 µM (inactive)
MDA-MB-435
  GI50: > 100 µM (inactive)
MCF7
  GI50: > 100 µM (inactive)
A498
  GI50: > 100 µM (inactive)
Hs-578T
  GI50: > 100 µM (inactive)
A549
  GI50: > 100 µM (inactive)
NCI-H23
  GI50: > 100 µM (inactive)

## S=c1cc(-c2ccc3c(c2)OCO3)s[nH]1
HOP-92
  GI50: > 100 µM (inactive)
MOLT-4
  GI50: 65.3 µM (inactive)
Malme-3M
  GI50: > 100 µM (inactive)
HCT-15
  GI50: > 100 µM
OVCAR-8
  GI50: > 100 µM (inactive)
RXF 393
  GI50: > 100 µM (inactive)
SK-MEL-28
  GI50: > 100 µM (inactive)
MDA-N
  GI50: > 100 µM (inactive)
IGROV-1
  GI50: > 100 µM (inactive)
NCI-H226
  GI50: 58.5 µM (inactive)
SK-MEL-5
  GI50: > 100 µM (inactive)
KM12
  GI50: > 100 µM (inactive)
MDA-MB-435
  GI50: > 100 µM (inactive)
MCF7
  GI50: > 100 µM (inactive)
A498
  GI50: 46.6 µM (inactive)
SNB-75
  GI50: 48.4 µM (inactive)
Hs-578T
  GI50: > 100 µM (inactive)
A549
  GI50: > 100 µM (inactive)
NCI-H23
  GI50: > 100 µM (inactive)

## COI1NC(=O)c2ccccc21
HOP-92
  GI50: > 100 µM (inactive)
MOLT-4
  GI50: > 100 µM (inactive)
Malme-3M
  GI50: > 100 µM (inactive)
HCT-15
  GI50: > 100 µM
OVCAR-8
  GI50: > 100 µM (inactive)
SK-MEL-28
  GI50: > 100 µM (inactive)
MDA-N
  GI50: > 100 µM (inactive)
IGROV-1
  GI50: > 100 µM (inactive)
NCI-H226
  GI50: > 100 µM (inactive)
SK-MEL-5
  GI50: > 100 µM (inactive)
KM12
  GI50: > 100 µM (inactive)
MDA-MB-435
  GI50: > 100 µM (inactive)
MCF7
  GI50: > 100 µM (inactive)
A498
  GI50: > 100 µM (inactive)
SNB-75
  GI50: > 100 µM (inactive)
Hs-578T
  GI50: > 100 µM (inactive)
A549
  GI50: > 100 µM (inactive)
NCI-H23
  GI50: > 100 µM (inactive)

## OCCN(C1=NCCN1)/[N+](=C/c1ccccc1O)[CH-]c1ccccc1O
HCC 2998
  GI50: > 100 µM (inactive)
MOLT-4
  GI50: > 100 µM (inactive)
Malme-3M
  GI50: > 100 µM (inactive)
HCT-15
  GI50: 51.5 µM
OVCAR-8
  GI50: > 100 µM (inactive)
MDA-N
  GI50: > 100 µM (inactive)
IGROV-1
  GI50: > 100 µM (inactive)
NCI-H226
  GI50: 28.6 µM (inactive)
SK-MEL-5
  GI50: > 100 µM (inactive)
KM12
  GI50: > 100 µM (inactive)
MDA-MB-435
  GI50: > 100 µM (inactive)
MCF7
  GI50: > 100 µM (inactive)
A498
  GI50: > 100 µM (inactive)
SNB-75
  GI50: > 100 µM (inactive)
Hs-578T
  GI50: > 100 µM (inactive)
A549
  GI50: > 100 µM (inactive)
NCI-H23
  GI50: > 100 µM (inactive)

## O=c1oc2ccc(Cl)cc2cc1-c1cn2ccsc2n1
HOP-92
  GI50: 12.4 µM (inactive)
HCC 2998
  GI50: 34.1 µM (inactive)
MOLT-4
  GI50: 24.4 µM (inactive)
Malme-3M
  GI50: > 100 µM (inactive)
HCT-15
  GI50: 36.1 µM
OVCAR-8
  GI50: 29.4 µM (inactive)
RXF 393
  GI50: 45.8 µM (inactive)
SK-MEL-28
  GI50: > 100 µM (inactive)
MDA-N
  GI50: 46 µM (inactive)
IGROV-1
  GI50: 20.5 µM (inactive)
SK-MEL-5
  GI50: 51.1 µM (inactive)
KM12
  GI50: 42.4 µM (inactive)
MDA-MB-435
  GI50: 40.8 µM (inactive)
MCF7
  GI50: 20.9 µM (inactive)
SNB-75
  GI50: > 100 µM (inactive)
Hs-578T
  GI50: 76.4 µM (inactive)
A549
  GI50: 38.4 µM (inactive)
NCI-H23
  GI50: 51.9 µM (inactive)

## CCOc1c2c(cc3c1C(=O)c1c(OC)cccc1C3=O)C=C(OC)CC2
HOP-92
  GI50: > 25 µM (inactive)
MOLT-4
  GI50: 8.71 µM (inactive)
Malme-3M
  GI50: 13.6 µM (inactive)
HCT-15
  GI50: 11.9 µM
OVCAR-8
  GI50: > 25 µM (inactive)
RXF 393
  GI50: 12 µM (inactive)
SK-MEL-28
  GI50: > 25 µM (inactive)
MDA-N
  GI50: 6.49 µM (inactive)
IGROV-1
  GI50: 15.2 µM (inactive)
NCI-H226
  GI50: > 25 µM (inactive)
SK-MEL-5
  GI50: 10.1 µM (inactive)
KM12
  GI50: 10.6 µM (inactive)
MDA-MB-435
  GI50: 8.04 µM (inactive)
MCF7
  GI50: 24.4 µM (inactive)
A498
  GI50: > 25 µM (inactive)
SNB-75
  GI50: 8.28 µM (inactive)
Hs-578T
  GI50: > 25 µM (inactive)
A549
  GI50: 13.5 µM (inactive)
NCI-H23
  GI50: > 25 µM (inactive)

## OCCN(CCO)c1nc(N2CCCCC2)c2nc(N(CCO)CCO)nc(N3CCCCC3)c2n1 [DIPYRIDAMOLE]
HOP-92
  GI50: 12.1 µM (inactive)
HCC 2998
  GI50: 16.3 µM (inactive)
MOLT-4
  GI50: 24.4 µM (inactive)
Malme-3M
  GI50: 20.5 µM (inactive)
HCT-15
  GI50: 31.4 µM
OVCAR-8
  GI50: 29.2 µM (inactive)
SK-MEL-28
  GI50: 43 µM (inactive)
MDA-N
  GI50: 45.8 µM (inactive)
IGROV-1
  GI50: 66.7 µM (inactive)
NCI-H226
  GI50: 48.9 µM (inactive)
SK-MEL-5
  GI50: 21.6 µM (inactive)
KM12
  GI50: 43 µM (inactive)
MDA-MB-435
  GI50: 69.7 µM (inactive)
MCF7
  GI50: > 10 µM (inactive)
Hs-578T
  GI50: 31.8 µM (inactive)
A549
  GI50: 38.5 µM (inactive)
NCI-H23
  GI50: 65.3 µM (inactive)

## C[C@@H]1C(=O)CC2(O)[C@@]13C[C@@H](OC(=O)[C@@H]3O)[C@@H](C)[C@@]21COC1=O (some centres not stated)
HCC 2998
  GI50: > 100 µM (inactive)
MOLT-4
  GI50: > 100 µM (inactive)
Malme-3M
  GI50: > 100 µM (inactive)
HCT-15
  GI50: > 100 µM
OVCAR-8
  GI50: > 100 µM (inactive)
RXF 393
  GI50: > 100 µM (inactive)
SK-MEL-28
  GI50: > 100 µM (inactive)
MDA-N
  GI50: > 100 µM (inactive)
IGROV-1
  GI50: > 100 µM (inactive)
NCI-H226
  GI50: > 100 µM (inactive)
SK-MEL-5
  GI50: > 100 µM (inactive)
KM12
  GI50: > 100 µM (inactive)
MDA-MB-435
  GI50: > 100 µM (inactive)
MCF7
  GI50: > 100 µM (inactive)
SNB-75
  GI50: > 100 µM (inactive)
Hs-578T
  GI50: > 100 µM (inactive)
A549
  GI50: > 100 µM (inactive)
NCI-H23
  GI50: > 100 µM (inactive)
